Measurements from PubChem BioAssay AID1963984 (Molecular Pharmacology Branch, DTP, NCI, 2024).

Test system: 233499-124-R-J3-PDC spheroids with HUVEC/MSC, viability
Experiment: Anticancer human tumor 233499-124-R-J3-PDC patient-derived colon adenocarcinoma cell line growth inhibition [PI3K]
Settings: for IC50: curve of first compound; for viability, T/C: stronger effect = lower value
Outline: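 High-throughput combination screen: PI3K inhibitors crossed with targeted small molecules on complex spheroids of tumor cells, HUVEC and MSCs at 37 degrees C, 5% CO2. Top concentration was at or near clinical Cmax (otherwise 10 microM), with half-log decrements.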

[1] = second compound 0.0316 µM, first compound 0.0316 µM
[2] = second compound 0.0316 µM, first compound 0.1 µM
[3] = second compound 0.0316 µM, first compound 0.316 µM
[4] = second compound 0.0316 µM, first compound 1 µM
[5] = second compound 0.0316 µM, first compound 3.16 µM
[6] = second compound 0.0316 µM, first compound 10 µM
[7] = second compound 0.1 µM, first compound 0.0316 µM
[8] = second compound 0.1 µM, first compound 0.1 µM
[9] = second compound 0.1 µM, first compound 0.316 µM
[10] = second compound 0.1 µM, first compound 1 µM
[11] = second compound 0.1 µM, first compound 3.16 µM
[12] = second compound 0.1 µM, first compound 10 µM
[13] = second compound 0.316 µM, first compound 0.0316 µM
[14] = second compound 0.316 µM, first compound 0.1 µM
[15] = second compound 0.316 µM, first compound 0.316 µM
[16] = second compound 0.316 µM, first compound 1 µM
[17] = second compound 0.316 µM, first compound 3.16 µM
[18] = second compound 0.316 µM, first compound 10 µM
[19] = second compound 1 µM, first compound 0.0316 µM
[20] = second compound 1 µM, first compound 0.1 µM
[21] = second compound 1 µM, first compound 0.316 µM
[22] = second compound 1 µM, first compound 1 µM
[23] = second compound 1 µM, first compound 3.16 µM
[24] = second compound 1 µM, first compound 10 µM
[25] = second compound 3.16 µM, first compound 0.0316 µM
[26] = second compound 3.16 µM, first compound 0.1 µM
[27] = second compound 3.16 µM, first compound 0.316 µM
[28] = second compound 3.16 µM, first compound 1 µM
[29] = second compound 3.16 µM, first compound 3.16 µM
[30] = second compound 3.16 µM, first compound 10 µM
[31] = second compound 10 µM, first compound 0.0316 µM
[32] = second compound 10 µM, first compound 0.1 µM
[33] = second compound 10 µM, first compound 0.316 µM
[34] = second compound 10 µM, first compound 1 µM
[35] = second compound 10 µM, first compound 3.16 µM
[36] = second compound 10 µM, first compound 10 µM
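Also: spheroids exposed to agents for seven days before readout.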
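For viability, T/C in this document: percent viability relative to DMSO vehicle control taken as 100%.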

CC1(C)CCC(Nc2ncc(C(F)(F)F)c(-c3c[nH]c4c(P(C)(C)=O)c(C#N)ccc34)n2)CN1 (stereo unspecified) + Cc1nc(NC(=O)N2CCCC2C(N)=O)sc1-c1ccnc(C(C)(C)C(F)(F)F)c1
IC50 (second compound 0.0316 µM): 66.4 nM | IC50 (second compound 0.1 µM): 32.6 nM | IC50 (second compound 0.316 µM): 154 nM | IC50 (second compound 1 µM): 62.3 nM | IC50 (second compound 3.16 µM): < 31.6 nM | IC50 (second compound 10 µM): < 31.6 nM | viability, T/C [1]: 65.2% | viability, T/C [2]: 32% | viability, T/C [3]: 32.9% | viability, T/C [4]: 34.6% | viability, T/C [5]: 25.1% | viability, T/C [6]: 6.03% | viability, T/C [7]: 51.6% | viability, T/C [8]: 41.4% | viability, T/C [9]: 29.3% | viability, T/C [10]: 25.1% | viability, T/C [11]: 19.8% | viability, T/C [12]: 2.83% | viability, T/C [13]: 54.8% | viability, T/C [14]: 76.9% | viability, T/C [15]: 23.8% | viability, T/C [16]: 31.1% | viability, T/C [17]: 16.6% | viability, T/C [18]: 3.57% | viability, T/C [19]: 69% | viability, T/C [20]: 34.2% | viability, T/C [21]: 24% | viability, T/C [22]: 21.9% | viability, T/C [23]: 29.1% | viability, T/C [24]: 2.22% | viability, T/C [25]: 52.1% | viability, T/C [26]: 34.9% | viability, T/C [27]: 31% | viability, T/C [28]: 18.4% | viability, T/C [29]: 15.9% | viability, T/C [30]: 0.85% | viability, T/C [31]: 16.1% | viability, T/C [32]: 16.2% | viability, T/C [33]: 25.9% | viability, T/C [34]: 27.1% | viability, T/C [35]: 10.1% | viability, T/C [36]: 0.57%

Cn1ncc(Cl)c1-c1cc(C(=O)NC(CN)Cc2cccc(F)c2)sc1Cl (stereo unspecified) + Cc1nc(NC(=O)N2CCCC2C(N)=O)sc1-c1ccnc(C(C)(C)C(F)(F)F)c1
IC50 (second compound 0.0316 µM): 5530 nM | IC50 (second compound 0.1 µM): 3310 nM | IC50 (second compound 0.316 µM): 4030 nM | IC50 (second compound 1 µM): 2630 nM | IC50 (second compound 3.16 µM): 558 nM | IC50 (second compound 10 µM): < 31.6 nM | viability, T/C [1]: 110% | viability, T/C [2]: 90.8% | viability, T/C [3]: 87.1% | viability, T/C [4]: 77.2% | viability, T/C [5]: 70% | viability, T/C [6]: 34.1% | viability, T/C [7]: 102% | viability, T/C [8]: 86.6% | viability, T/C [9]: 82.8% | viability, T/C [10]: 57.2% | viability, T/C [11]: 53.5% | viability, T/C [12]: 39.3% | viability, T/C [13]: 85.3% | viability, T/C [14]: 94% | viability, T/C [15]: 76.2% | viability, T/C [16]: 64.4% | viability, T/C [17]: 62.1% | viability, T/C [18]: 27.7% | viability, T/C [19]: 81.9% | viability, T/C [20]: 74.3% | viability, T/C [21]: 72.7% | viability, T/C [22]: 75.2% | viability, T/C [23]: 45.3% | viability, T/C [24]: 18.7% | viability, T/C [25]: 62% | viability, T/C [26]: 69.9% | viability, T/C [27]: 55.3% | viability, T/C [28]: 38.1% | viability, T/C [29]: 35.3% | viability, T/C [30]: 14.4% | viability, T/C [31]: 29.3% | viability, T/C [32]: 29.4% | viability, T/C [33]: 23% | viability, T/C [34]: 25.5% | viability, T/C [35]: 30% | viability, T/C [36]: 2.94%

Cn1nccc1Nc1nccc(-c2ccn(C(CO)c3ccc(Cl)c(F)c3)c(=O)c2)n1 (stereo unspecified) + Cc1nc(NC(=O)N2CCCC2C(N)=O)sc1-c1ccnc(C(C)(C)C(F)(F)F)c1
IC50 (second compound 0.0316 µM): > 10000 nM | IC50 (second compound 0.1 µM): 8610 nM | IC50 (second compound 0.316 µM): > 10000 nM | IC50 (second compound 1 µM): 3160 nM | IC50 (second compound 3.16 µM): 853 nM | IC50 (second compound 10 µM): < 31.6 nM | viability, T/C [1]: 82.9% | viability, T/C [2]: 98.6% | viability, T/C [3]: 73% | viability, T/C [4]: 91.6% | viability, T/C [5]: 68.9% | viability, T/C [6]: 58.2% | viability, T/C [7]: 92.6% | viability, T/C [8]: 100% | viability, T/C [9]: 68.7% | viability, T/C [10]: 83.3% | viability, T/C [11]: 82.7% | viability, T/C [12]: 45.2% | viability, T/C [13]: 94.6% | viability, T/C [14]: 63.8% | viability, T/C [15]: 67.9% | viability, T/C [16]: 65.7% | viability, T/C [17]: 57.7% | viability, T/C [18]: 47.8% | viability, T/C [19]: 89.2% | viability, T/C [20]: 81.5% | viability, T/C [21]: 31.1% | viability, T/C [22]: 57.6% | viability, T/C [23]: 52.3% | viability, T/C [24]: 64.8% | viability, T/C [25]: 68.2% | viability, T/C [26]: 58.7% | viability, T/C [27]: 54.8% | viability, T/C [28]: 53.8% | viability, T/C [29]: 38.4% | viability, T/C [30]: 34.8% | viability, T/C [31]: 33.8% | viability, T/C [32]: 35.6% | viability, T/C [33]: 46% | viability, T/C [34]: 22.7% | viability, T/C [35]: 14.5% | viability, T/C [36]: 17.5%
